# From patent US9751842B2, “Phthalazine derivatives” (Merck Patent GmbH, priority 2013, dated 2017)
# Where two headings read alike, the source gives them in different places.
# Key:
# His-tagged Parp-1 = biological target: T1, His-tagged Parp-1 (Homo sapiens, UniProt P09874); assay: PARP-1 autoparsylation HTRF assay; assay type: biochemical; details: 150 min at 23° C
# T1 construct: purchased Enzo Life Sciences GmbH, Lörrach, Germany
# From the text: Description of the PARP1 Assay
# Biochemical Activity Testing of PARP-1: Autoparsylation Assay
# The autoparsylation assay is run in two steps: the enzymatic reaction in which His-tagged Parp-1 transfers biotinylated ADP-ribose/ADP-ribose to itself from biotinylated NAD/NAD as co-substrate and the detection reaction where a time resolved FRET between cryptate labelled anti-His antibody bound to the His tag of the enzyme and Xlent® labelled-streptavidin bound the biotin parsylation residue is analysed. The autoparsylation activity is detectable directly via the increase in HTRF signal.
# The autoparsylation assay is performed as 384-well HTRF® (Cisbio, Codolet, France) assay format in Greiner low volume nb 384-well microtiter plates. 35 nM His-tagged Parp-1 (human, recombinant, Enzo Life Sciences GmbH, Lörrach, Germany) and a mixture of 125 nM bio-NAD (Biolog, Life science Inst., Bremen, Germany) and 800 nM NAD as co-substrate are incubated in a total volume of 6 μl (100 mM Tris/HCl, 4 mM Mg-chloride, 0.01% IGEPAL® CA630, 1 mM DTT, 0.5% DMSO, pH 8, 13 ng/μl activated DNA (BPS Bioscience, San Diego, US)) in the absence or presence of the test compound (10 dilution concentrations) for 150 min at 23° C. The reaction is stopped by the addition of 4 μl of the Stop/detection solution (70 nM SA-Xlent® (Cisbio, Codolet, France), 2.5 nM Anti-His-K® (Eu-labelled anti-His, Cisbio, Codolet, France) in 50 mM HEPES, 400 mM KF, 0.1% BSA, 20 mM EDTA, pH 7.0). After 1 h incubation at room temperature the HTRF is measured with an Envision multimode reader (Perkin Elmer LAS Germany GmbH) at excitation wavelength 340 nm (laser mode) and emission wavelengths 615 nm and 665 nm. The ratio of the emission signals is determined. The full value used is the inhibitor-free reaction. The pharmacological zero value used is Olaparib (LClabs, Woburn, US) in a final concentration of 1 μM. The inhibitory values (IC50) are determined using either the program Symyx Assay Explorer® or Condosseo® from GeneData.
# [1] = biological target: T2, GST-tagged Tankyrase-2 (873-1166 aa) (Homo sapiens, UniProt Q9H2K2); assay: Tankyrase 2 autoparsylation HTRF enzyme assay; assay type: biochemical
# T2 construct: GST-tagged Tankyrase-2 (873-1166 aa)
# Protocol: (§1) Biochemical Activity Testing of Tankyrase 1 and 2: Autoparsylation Assay
# (§2) The autoparsylation assay is run in two steps: the enzymatic reaction in which GST-tagged Tankyrase-1, resp Tankyrase-2 transferred biotinylated ADP-ribose to itself from biotinylated NAD as co-substrate and the detection reaction where a time resolved FRET between cryptate labelled anti-GST bound to the GST tag of the enzyme and Xlent® labelled-streptavidin bound the biotin-parsylation residue is analysed. The autoparsylation activity was detectable directly via the increase in HTRF signal.
# (§3) The autoparsylation assay is performed as 384-well HTRF® (Cisbio, Codolet, France) assay format in Greiner low volume nb 384-well microtiter plates and is used for high throughput screen. 250 nM GST-tagged Tankyrase-1 (1023-1327 aa), respectively about 250 nM GST-tagged Tankyrase-2 (873-1166 aa) and 5 μM bio-NAD (Biolog, Life science Inst., Bremen, Germany) as co-substrate are incubated in a total volume of 5 μl (50 mM HEPES, 4 mM Mg-chloride, 0.05% Pluronic F-68, 1.4 mM DTT, 0.5% DMSO, pH 7.7) in the absence or presence of the test compound (10 dilution concentrations) for 90 min at 30° C. The reaction is stopped by the addition of 1 μl 50 mM EDTA solution. 2 μl of the detection solution (1.6 μM SA-Xlent® (Cisbio, Codolet, France), 7.4 nM Anti-GST-K® (Eu-labelled anti-GST, Cisbio, Codolet, France) in 50 mM HEPES, 800 mM KF, 0.1° A. BSA, 20 mM EDTA, 0.1% CHAPS, pH 7.0) are added. After 1 h incubation at room temperature the HTRF is measured with an Envision multimode reader (Perkin Elmer LAS Germany GmbH) at excitation wavelength 340 nm (laser mode) and emission wavelengths 615 nm and 665 nm. The ratio of the emission signals is determined. The full value used is the inhibitor-free reaction. The pharmacological zero value used is XAV-939 (Tocris) in a final concentration of 5 μM. The inhibitory values (IC50) are determined using either the program Symyx Assay Explorer® or Condosseo® from GeneData.
# [2] = biological target: T3, GST-tagged Tnks-2 (873-1166 aa) (Homo sapiens, UniProt Q9H2K2); assay: TNKS2 activity ELISA (autoparsylation); assay type: biochemical
# T3 construct: GST-tagged Tnks-2 (873-1166 aa, prepared in-house); made in house
# Protocol: (§4) Description of the TNKS1 and TNKS2 ELISA Assay
# (§5) Biochemical Activity Testing of TNKS 1 and 2: Activity ELISA (Autoparsylation Assay)
# (§6) For analysis of autoparsylation activity of TNKS 1 and 2 an activity ELISA is performed: In the first step GST tagged TNKS is captured on a Glutathione coated plate. Then the activity assay with biotinylated NAD is performed in the absence/presence of the compounds. During the enzymatic reaction GST tagged TNKS transfers biotinylated ADP-ribose to itself from biotinylated NAD as co-substrate. For the detection streptavidin-HRP conjugate is added that binds to the biotinylated TNKS and is thereby captured to the plates. The amount of biotinylated resp. autoparsylated TNKS is detected with a luminescence substrate for HRP. The level of the luminescence signal correlates directly with the amount of autoparsylated TNKS and therefore with activity of TNKS.
# (§7) The activity ELISA is performed in 384 well Glutathione coated microtiter plates (Express capture Glutathione coated plate, Biocat, Heidelberg, Germany). The plates are pre-equilibrated with PBS. Then the plates are incubated with 50 μl 20 ng/well GST-tagged Tnks-1 (1023-1327 aa, prepared in-house), respectively GST-tagged Tnks-2 (873-1166 aa, prepared in-house) in assay buffer (50 mM HEPES, 4 mM Mg-chloride, 0.05% Pluronic F-68, 2 mM DTT, pH 7.7) overnight at 4° C. The plates are washed 3 times with PBS-Tween-20. The wells are blocked by incubation at room temperature for 20 minutes with 50 μl blocking buffer (PBS, 0.05% Tween-20, 0.5% BSA). Afterwards the plates are washed 3 times with PBS-Tween-20. The enzymatic reaction is performed in 50 μl reaction solution (50 mM HEPES, 4 mM Mg-chloride, 0.05% Pluronic F-68, 1.4 mM DTT, 0.5% DMSO, pH 7.7) with 10 μM bio-NAD (Biolog, Life science Inst., Bremen, Germany) as co-substrate in the absence or presence of the test compound (10 dilution concentrations) for 1 hour at 30° C. The reaction is stopped by 3 times washing with PBS-Tween-20. For the detection 50 μl of 20 ng/μl Streptavidin, HRP conjugate (MoBiTec, Göttingen, Germany) in PBS/0.05% Tween-20/0.01% BSA are added and the plates are incubated for 30 minutes at room temperature. After three times washing with PBS-Tween-20 50 μl of SuperSignal ELISA Femto Maximum sensitivity substrate solution (ThermoFisherScientific (Pierce), Bonn, Germany) are added. Following a 1 minute incubation at room temperature luminescence signals are measured with an Envision multimode reader (Perkin Elmer LAS Germany GmbH) at 700 nm. The full value used is the inhibitor-free reaction. The pharmacological zero value used is XAV-939 (Tocris) in a final concentration of 5 μM. The inhibitory values (IC50) are determined using either the program Symyx Assay Explorer® or Condosseo® from GeneData.
# [3] = biological target: T4, GST-tagged Tankyrase-1 (1023-1327 aa) (Homo sapiens, UniProt O95271); assay: Tankyrase 1 autoparsylation HTRF enzyme assay; assay type: biochemical
# T4 construct: GST-tagged Tankyrase-1 (1023-1327 aa)
# Protocol: as §1, §2, §3
# [4] = biological target: T5, GST-tagged Tnks-1 (1023-1327 aa) (Homo sapiens, UniProt O95271); assay: TNKS1 activity ELISA (autoparsylation); assay type: biochemical
# T5 construct: GST-tagged Tnks-1 (1023-1327 aa, prepared in-house); made in house
# Protocol: as §4, §5, §6, §7
# [5] = tested on: Tankyrase (Axin2 level in DLD1 cells); assay: Cellular inhibition of Tankyrase, Axin2 Luminex assay in DLD1 cells; assay type: cell-based; details: Homo sapiens, DLD-1, 24 hours, Axin2 level increase, read-out: IC50 Cell assay
# Protocol: Measurement of Cellular Inhibition of Tankyrase
# Since Tankyrases have been described to modulate cellular level of Axin2 (Huang et al., 2009; Nature) the increase of Axin2 level is used as read-out for determination of cellular inhibition of Tankyrases in a Luminex based assay.
# Cells of the colon carcinoma cell line DLD1 are plated in 96 well plates with 1.5×10^4 cells per well. Next day, cells are treated with a serial dilution of test compound in seven steps as triplicates with a final DMSO concentration of 0.3%. After 24 hours, cells are lysed in lysis buffer (20 mM Tris/HCl pH 8.0, 150 mM NaCl, 1% NP40, 10% Glycerol) and lysates are cleared by centrifugation through a 96 well filter plate (0.65 μm). Axin2 protein is isolated from cell lysates by incubation with a monoclonal anti-Axin2 antibody (R&D Systems #MAB6078) that is bound to fluorescent carboxybeads. Then, bound Axin2 is specifically detected with a polyclonal anti-Axin2 antibody (Cell Signaling #2151) and an appropriate PE-fluorescent secondary antibody. The amount of isolated Axin2 protein is determined in a Luminex^200 machine (Luminex Corporation) according to the manufacturer's instruction by counting 100 events per well. Inhibition of Tankyrase by test compounds results in higher levels of Axin2 which directly correlates with an increase of detectable fluorescence. As controls cells are treated with solvent alone (neutral control) and with a Tankyrase reference inhibitor IWR-2 (3E-06 M) which refers as control for maximum increase of Axin2. For analysis, the obtained data are normalized against the untreated solvent control and fitted for determination of the EC50 values using the Assay Explorer software (Accelrys).
# [6] = HTRF autoparsylation, 90 min at 30° C, read-out: IC50 TNKS2 enzyme assay
# [7] = activity ELISA, 1 hour at 30° C, read-out: IC50 TNKS2 ELISA
# [8] = HTRF autoparsylation, 90 min at 30° C, read-out: IC50 TNKS1 enzyme assay
# [9] = activity ELISA, 1 hour at 30° C, read-out: IC50 TNKS1 ELISA
# T2 sequence (Q9H2K2 873-1166): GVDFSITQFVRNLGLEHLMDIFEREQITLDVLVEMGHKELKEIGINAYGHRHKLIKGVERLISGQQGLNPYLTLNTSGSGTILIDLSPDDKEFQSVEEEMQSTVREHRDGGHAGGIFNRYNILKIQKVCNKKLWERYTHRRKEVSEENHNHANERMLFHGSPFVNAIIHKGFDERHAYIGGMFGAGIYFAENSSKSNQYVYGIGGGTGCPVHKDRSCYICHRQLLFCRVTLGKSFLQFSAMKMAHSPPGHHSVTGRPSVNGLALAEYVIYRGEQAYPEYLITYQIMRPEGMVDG
# T3 sequence (Q9H2K2 873-1166): as above
# T4 sequence (O95271 1023-1327): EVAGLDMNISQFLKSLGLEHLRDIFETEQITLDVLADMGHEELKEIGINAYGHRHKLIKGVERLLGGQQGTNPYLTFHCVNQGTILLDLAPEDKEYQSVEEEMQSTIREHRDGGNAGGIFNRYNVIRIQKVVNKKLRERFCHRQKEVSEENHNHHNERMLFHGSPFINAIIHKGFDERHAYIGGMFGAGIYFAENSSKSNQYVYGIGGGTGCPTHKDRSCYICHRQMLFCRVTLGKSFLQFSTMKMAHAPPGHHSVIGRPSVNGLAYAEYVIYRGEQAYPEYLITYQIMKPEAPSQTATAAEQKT
# T5 sequence (O95271 1023-1327): as above
# T1 sequence (P09874 whole entry): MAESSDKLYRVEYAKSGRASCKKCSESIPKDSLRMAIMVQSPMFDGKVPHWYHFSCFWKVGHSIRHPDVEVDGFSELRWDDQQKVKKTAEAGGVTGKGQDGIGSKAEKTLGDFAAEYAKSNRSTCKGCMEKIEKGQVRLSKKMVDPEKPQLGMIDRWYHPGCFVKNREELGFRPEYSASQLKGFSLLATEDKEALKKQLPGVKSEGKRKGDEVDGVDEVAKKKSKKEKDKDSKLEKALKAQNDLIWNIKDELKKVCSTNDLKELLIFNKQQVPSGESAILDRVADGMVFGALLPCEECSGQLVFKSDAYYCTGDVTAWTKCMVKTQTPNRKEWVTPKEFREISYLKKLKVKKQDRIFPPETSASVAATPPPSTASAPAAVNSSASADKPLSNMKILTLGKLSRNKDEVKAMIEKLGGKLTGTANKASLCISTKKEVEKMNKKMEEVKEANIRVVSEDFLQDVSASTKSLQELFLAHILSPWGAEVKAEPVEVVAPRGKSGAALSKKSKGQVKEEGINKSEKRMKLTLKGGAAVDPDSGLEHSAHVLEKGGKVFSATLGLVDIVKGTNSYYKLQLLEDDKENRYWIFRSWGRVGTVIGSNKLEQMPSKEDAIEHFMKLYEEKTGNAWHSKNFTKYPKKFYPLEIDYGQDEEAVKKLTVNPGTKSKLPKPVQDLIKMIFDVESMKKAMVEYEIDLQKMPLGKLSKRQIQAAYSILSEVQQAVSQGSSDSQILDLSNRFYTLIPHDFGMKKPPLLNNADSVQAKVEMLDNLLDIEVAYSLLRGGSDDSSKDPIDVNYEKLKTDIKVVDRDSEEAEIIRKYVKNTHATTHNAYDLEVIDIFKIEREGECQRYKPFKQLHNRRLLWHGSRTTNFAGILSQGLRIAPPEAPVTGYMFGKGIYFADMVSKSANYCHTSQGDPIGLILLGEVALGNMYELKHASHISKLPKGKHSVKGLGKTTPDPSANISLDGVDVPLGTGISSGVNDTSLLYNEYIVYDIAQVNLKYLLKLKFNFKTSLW
Structure (SMILES),IC50 (His-tagged Parp-1),"IC50 [1, 6]","IC50 [2, 7]","IC50 [3, 8]","IC50 [4, 9]",IC50 [1],IC50 [2],IC50 [3],IC50 [4],IC50 [5]
"O=C(Cc1cccc([N+](=O)[O-])c1)Nc1nncc2ccccc12 [Compound A7, 2-(3-nitrophenyl)-N-phthalazin-1-yl-acetamide]",0.3 to 3 µM,,,,,0.3 to 3 µM,0.3 to 3 µM,0.3 to 3 µM,0.3 to 3 µM,
"CCOc1ccc(CC(=O)Nc2nncc3c(F)cccc23)cc1 [Compound A11, 2-(4-ethoxy-phenyl)-N-(5-fluoro-phthalazin-1-yl)-acetamide]",,3 to 50 µM,,3 to 50 µM,,,,,,
"COc1ccc(CC(=O)Nc2nncc3c(F)cccc23)cc1 [Compound A12, N-(5-fluoro-phthalazin-1-yl)-2-(4-methoxy-phenyl)-acetamide]",,3 to 50 µM,,0.3 to 3 µM,,,,,,
"Cc1cccc2c(NC(=O)Cc3ccccc3)nncc12 [Compound A19, N-(5-methyl-phthalazin-1-yl)-2-phenyl-acetamide]",,3 to 50 µM,,3 to 50 µM,,,,,,
"COc1ccc(CC(=O)Nc2nncc3c(C)cccc23)cc1 [Compound A21, 2-(4-methoxy-phenyl)-N-(5-methyl-phthalazin-1-yl)-acetamide]",,3 to 50 µM,,3 to 50 µM,,,,,,

# Continued, values first:
IC50 (His-tagged Parp-1),"IC50 [1, 6]","IC50 [2, 7]","IC50 [3, 8]","IC50 [4, 9]",IC50 [1],IC50 [2],IC50 [3],IC50 [4],IC50 [5],Structure (SMILES)
3 to 50 µM,3 to 50 µM,0.3 to 3 µM,0.3 to 3 µM,0.3 to 3 µM,,,,,,"O=C(Cc1cccc(OC(F)(F)F)c1)Nc1nncc2ccccc12 [Compound A5, N-phthalazin-1-yl-2-(3-trifluoromethoxyphenyl)-acetamide]"
0.3 to 3 µM,3 to 50 µM,0.3 to 3 µM,0.3 to 3 µM,0.3 to 3 µM,,,,,,"N#Cc1cccc(CC(=O)Nc2nncc3ccccc23)c1 [Compound A6, 2-(3-cyanophenyl)-N-phthalazin-1-yl-acetamide]"
3 to 50 µM,0.3 to 3 µM,< 0.3 µM,< 0.3 µM,< 0.3 µM,,,,,,"O=C(Cc1ccc(OC(F)(F)F)cc1)Nc1nncc2ccccc12 [Compound A8, N-phthalazin-1-yl-2-(4-trifluoromethoxyphenyl)-acetamide]"
3 to 50 µM,0.3 to 3 µM,< 0.3 µM,0.3 to 3 µM,< 0.3 µM,,,,,,"CC(C)(C)c1ccc(CC(=O)Nc2nncc3ccccc23)cc1 [Compound A9, 2-(4-tert-butylphenyl)-N-phthalazin-1-yl-acetamide]"
3 to 50 µM,3 to 50 µM,,3 to 50 µM,,,,,,,"O=C(Cc1c(Cl)cccc1Cl)Nc1nncc2ccccc12 [Compound A10, 2-(2,6-dichlorophenyl)-N-phthalazin-1-yl-acetamide]"
3 to 50 µM,0.3 to 3 µM,< 0.3 µM,0.3 to 3 µM,< 0.3 µM,,,,,,"O=C(CCC1CCCCC1)Nc1nncc2ccccc12 [Compound A13, 3-cyclohexyl-N-phthalazin-1-yl-propionamide]"
,0.3 to 3 µM,< 0.3 µM,< 0.3 µM,< 0.3 µM,,,,,3 to 50 µM,"O=C(CCc1ccccc1)Nc1nncc2ccccc12 [Compound A14, 3-phenyl-N-phthalazin-1-yl-propionamide]"
